The values below come from US8124744B2, “Macrolide derivatives” (Taisho Pharmaceutical Co., Ltd., priority 2006, dated 2012).

For one assay, the system named is pro MMP-9 protein. In words: Inhibitory activity against proMMP-9 protein production (TNF α-stimulated mouse peritoneal exudate cells, ELISA). The note with it: relative activity when the value of Comparative Agent 1 (IC50 = 10.04 ± 4.11 μM) is 10, on the increase of pro MMP-9 by TNF α 25 ng/ml, 24 hours, read-out: IC50 (μM)*. The assay is classed as cell-based, C57BL/6J mice. In short, it runs like this:
(§1)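 Peritoneal exudate cells came from male C57BL/6J mice 3 days after i.p. zymosan A; cultured cells got compound (0.02–20 μM final) 1 h before TNFα (25 ng/ml) and supernatant pro MMP-9 was measured by ELISA after 24 h for IC50 against the TNFα-induced increase. MIC was measured against S. aureus ATCC29213.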
For orientation: An ELISA detects its analyte on a solid surface through an enzyme-linked reagent.

The subject of assay [1] is Staphylococcus aureus ATCC29213. In words: Minimal inhibitory concentration (MIC). The assay is classed as cell-based. In short, it runs like this:
as §1

Another assay deals with MMP-9 production. The note with it: background art, Non-Patent Document 3; read-out: 50% inhibitory concentration (IC50) value, MMP-9 production; cited from earlier work.

Molecules are shown by their SMILES. Values after ≈ are worked out from the molar mass of the structure shown.

Regarding `CC[C@H]1OC(=O)[C@H](C)[C@@H](O[C@H]2C[C@@](C)(OC)[C@@H](O)[C@H](C)O2)[C@H](C)[C@@H](O[C@@H]2O[C@H](C)C[C@@H](N(C)CCCO)[C@@H]2N(C)C)[C@@](C)(OC)C[C@@H](C)C(=O)[C@H](C)[C@@H](O)[C@]1(C)O` [Example 199, 3′-N-demethyl-2′-deoxy-2′-dimethylamino-3′-N-(3-hydroxypropyl)-6-O-methylerythromycin A], the IC50 in the assay on pro MMP-9 protein was determined as 3.6 µM. This compound registered a minimal inhibitory concentration (MIC) in assay [1] of more than 128 µg/mL.

In the case of `CC[C@H]1OC(=O)[C@H](C)[C@@H](O[C@H]2C[C@@](C)(OC)[C@@H](O)[C@H](C)O2)[C@H](C)[C@@H](O[C@@H]2O[C@H](C)C[C@@H](N3CC[C@H](O)C3)[C@@H]2N(C)C)[C@@](C)(OC)C[C@@H](C)C(=O)[C@H](C)[C@@H](O)[C@]1(C)O` [Example 201, 3′-dedimethylamino-2′-deoxy-2′-dimethylamino-3′-((S)-3-hydroxypyrrolidin-1-yl)-6-O-methylerythromycin A], in the assay with pro MMP-9 protein, the IC50 amounted to 4.45 µM. The MIC in assay [1] was more than 128 µg/mL.

Regarding `CC[C@H]1OC(=O)[C@H](C)[C@@H](OC(C)=O)[C@H](C)[C@@H](O[C@@H]2O[C@H](C)C[C@@H](N3CCOCC3)[C@@H]2N(C)C)[C@@](C)(OC)C[C@@H](C)C(=O)[C@H](C)[C@@H](O)[C@]1(C)O` [Example 203, 3-O-acetyl-5-O— (3′-dedimethylamino-2′-deoxy-2′-dimethylamino-3′-(4-morpholino)desosaminyl)-6-O-methylerythronolide A], the IC50 in the assay on pro MMP-9 protein was determined as 5.03 µM. The compound also displayed a minimum inhibitory concentration (MIC) in assay [1] of more than 128 µg/mL.

In the case of `CC[C@H]1OC(=O)[C@H](C)[C@@H](O[C@H]2C[C@@](C)(OC)[C@@H](OC(C)=O)[C@H](C)O2)[C@H](C)[C@@H](O[C@@H]2O[C@H](C)C[C@@H](N3CCOCC3)[C@@H]2N(C)C)[C@@](C)(OC)C[C@@H](C)C(=O)[C@H](C)[C@@H](O)[C@H]1C` [Example 209, 4″-O-acetyl-3′-dedimethylamino-2′-deoxy-2′-dimethylamino-3′-(4-morpholino)-6-O-methylerythromycin B], the IC50 in the assay with pro MMP-9 protein was found to be 3.47 µM. The compound also returned an MIC in assay [1] of more than 128 µg/mL.

As to `CC[C@H]1OC(=O)[C@H](C)[C@@H](O[C@H]2C[C@@](C)(OC)[C@@H](O)[C@H](C)O2)[C@H](C)[C@@H](O[C@@H]2O[C@H](C)C[C@@H](N3CCOCC3)[C@@H]2N(C)C)[C@@](C)(OC)C[C@@H](C)C(=O)[C@H](C)[C@@H](O)[C@H]1C` [Example 210, 3′-dedimethylamino-2′-deoxy-2′-dimethylamino-3′-(4-morpholino)-6-O-methylerythromycin B], in the assay on pro MMP-9 protein, the IC50 was 4.63 µM. For the same compound, the MIC in assay [1] was 128 µg/mL (≈ 160 µM).

Take `CC[C@H]1OC(=O)[C@H](C)C(=O)[C@H](C)[C@@H](O[C@@H]2O[C@H](C)C[C@@H](N3CCOCC3)[C@@H]2N(C)C)[C@@](C)(OC)C[C@@H](C)C(=O)[C@H](C)[C@H]2N(CCCCn3cnc(-c4cccnc4)c3)C(=O)O[C@]12C` [Example 211, 3,11-dideoxy-5-O-(3′-dedimethylamino-2′-deoxy-2′-dimethylamino-3′-(4-morpholino)desosaminyl)-11-{4-[4-(pyridin-3-yl)-1H-imidazol-1-yl]butyl}-amino-3-oxo-6-O-methylerythronolide A 11,12-cyclic carbamate]: the IC50 in the assay on pro MMP-9 protein is 2.58 µM. The MIC in assay [1] is more than 128 µg/mL.

With `CC[C@H]1OC(=O)[C@H](C)[C@@H](O[C@H]2C[C@@](C)(OC)[C@@H](OC(C)=O)[C@H](C)O2)[C@H](C)[C@@H](O[C@@H]2O[C@H](C)C[C@@H](N3CCOCC3)[C@@H]2N(C)C)[C@@](C)(OC(C)=O)C[C@@H](C)CN(C)[C@H](C)[C@@H](OC(C)=O)[C@]1(C)O` [Example 212, 6,11,4″-O-triacetyl-3′-dedimethylamino-2′-deoxy-2′-dimethylamino-3′-(4-morpholino)-9-deoxo-9a-aza-9a-methyl-9a-homoerythromycin A], in the assay on pro MMP-9 protein, the IC50 was 1.78 µM. Also, in assay [1], the minimum inhibitory concentration (MIC) is more than 128 µg/mL.

On to `CC[C@H]1OC(=O)[C@H](C)[C@@H](O[C@H]2C[C@@](C)(OC)[C@@H](O)[C@H](C)O2)[C@H](C)[C@@H](O[C@@H]2O[C@H](C)C[C@@H](N3CCOCC3)[C@@H]2N(C)C)[C@@](C)(O)C[C@@H](C)CN(C)[C@H](C)[C@@H](O)[C@]1(C)O` [Example 213, 3′-dedimethylamino-2′-deoxy-2′-dimethylamino-3′-(4-morpholino)-9-deoxo-9a-aza-9a-methyl-9a-homoerythromycin A], for which the IC50 in the assay with pro MMP-9 protein was found to be 0.77 µM. Also, the MIC in assay [1] was more than 128 µg/mL.

As to `CC[C@H]1OC(=O)[C@H](C)[C@@H](O[C@H]2C[C@@](C)(OC)[C@@H](OC(C)=O)[C@H](C)O2)[C@H](C)[C@@H](O[C@@H]2O[C@H](C)C[C@H](N(C)CCN(C)C)[C@H]2O)[C@@](C)(OC)C[C@@H](C)C(=O)[C@H](C)[C@@H](O)[C@]1(C)O` [Example 214, 4″-O-acetyl-3′-N-demethyl-3′-N-(2-dimethylaminoethyl)-6-methylerythromycin A], in the assay with pro MMP-9 protein, the IC50 worked out at 2.73 µM. The same compound showed an MIC in assay [1] of more than 128 µg/mL.

`CC[C@H]1OC(=O)[C@H](C)[C@@H](O[C@H]2C[C@@](C)(OC)[C@@H](OC(C)=O)[C@H](C)O2)[C@H](C)[C@@H](O[C@@H]2O[C@H](C)C[C@@H](N3CCOCC3)[C@@H]2N(C)CCN(C)C)[C@@](C)(OC)C[C@@H](C)C(=O)[C@H](C)[C@@H](O)[C@]1(C)O` [Example 215]: the IC50 in the assay with pro MMP-9 protein was 1.21 µM. This compound showed an MIC in assay [1] of more than 128 µg/mL.

Take `CC[C@H]1OC(=O)[C@H](C)[C@@H](O[C@H]2C[C@@](C)(OC)[C@@H](O)[C@H](C)O2)[C@H](C)[C@@H](O[C@@H]2O[C@H](C)C[C@@H](N3CCOCC3)[C@@H]2N(C)CCN(C)C)[C@@](C)(OC)C[C@@H](C)C(=O)[C@H](C)[C@@H](O)[C@]1(C)O` [Example 216]: the IC50 in the assay with pro MMP-9 protein came out at 2.55 µM. The same compound yielded an MIC in assay [1] of more than 128 µg/mL.

As to `CC[C@H]1OC(=O)[C@H](C)[C@@H](O[C@H]2C[C@@](C)(OC)[C@@H](O)[C@H](C)O2)[C@H](C)[C@@H](O[C@@H]2O[C@H](C)C[C@H](N(C)C)[C@H]2O)[C@](C)(O)C[C@@H](C)/C(=N\OCOCCOC)[C@H](C)[C@@H](O)[C@]1(C)O` [roxithromycin], the IC50 in the assay on MMP-9 production is not below 10000 nM.

One may read the MIC as the smallest concentration in the dilution series that meets the test's criterion for growth inhibition. A higher MIC goes with a need for much substance.
